Patent publication US20080207596A1, “Novel compounds 329” (priority 2006, published 2008)

Molecular target: T1, human active recombinant p38α-6His tagged (Homo sapiens, UniProt Q16539)
T1 construct: 6His
Assay: P38 alpha enzyme assay (AlphaScreen, biotinylated-ATF2 substrate)
Type: biochemical
Details: 4 hours pre-incubation at 37° C., 1 mM ATP added
Procedure: Enzyme assays were performed in polypropylene 96 well plates. The following solutions were added to each well; 10 μL of compound dilutions in assay buffer (20 mM HEPES pH 7.4, containing 20 mM magnesium acetate, 0.005% (w/v) Tween-20, 10 mM DTT) containing 1% (v/v) DMSO or assay buffer containing 1% (v/v) DMSO alone, 70 μL of assay buffer containing 36 nM substrate (biotinylated-ATF2) and 10 μL of an appropriate dilution of human active recombinant p38α-6His tagged. Depending on batch of p38, an appropriate dilution was typically a 5 nM solution to give a final enzyme concentration of 0.5 nM. At this stage, background control wells also received 50 μL of AlphaScreen quench buffer (10 mM HEPES pH 7.4 containing 100 mM EDTA, 0.2% (w/v) bovine serum albumin). The plate was covered, pre-incubated for 4 hours at 37° C. and the enzyme reaction initiated by addition of 10 μL 1 mM ATP. After incubation for a further 45 minutes at 37° C., the reaction was stopped by addition of 50 μL quench reagent and 50 μL of the quenched reaction mixture transferred to an opaque, white 96-well plate. Detection reagent, 25 μL of 10 mM HEPES pH 7.4 containing 100 mM EDTA, 0.2% (w/v) bovine serum albumin, 0.3 nM anti phosphoATF2 antibody and 25 μg/mL of AlphaScreen protein A acceptor and donor beads, was added to all wells in a darkened room, the plate sealed and left in the dark for between 5 and 24 hours before AlphaScreen readings were taken using a Perkin Elmer EnVision reader.

T1 sequence (Q16539 whole entry): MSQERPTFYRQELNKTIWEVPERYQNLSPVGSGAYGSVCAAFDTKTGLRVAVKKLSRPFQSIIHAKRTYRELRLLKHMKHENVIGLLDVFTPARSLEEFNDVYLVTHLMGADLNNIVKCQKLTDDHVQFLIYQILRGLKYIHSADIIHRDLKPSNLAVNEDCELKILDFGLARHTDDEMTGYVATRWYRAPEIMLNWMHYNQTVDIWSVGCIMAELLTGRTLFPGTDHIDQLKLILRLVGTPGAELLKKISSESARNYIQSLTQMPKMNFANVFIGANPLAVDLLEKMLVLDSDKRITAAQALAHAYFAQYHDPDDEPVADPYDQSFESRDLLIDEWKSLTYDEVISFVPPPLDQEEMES

SMILES | IC50 [nM]
Cc1ccc(NC(=O)c2cccc(N3CCCCC3)c2)cc1-n1ccc2ccc(OCCN3CCCC3)cc2c1=O [Example 1, N-{4-Methyl-3-[1-oxo-7-(2-pyrrolidin-1-ylethoxy)isoquinolin-2(1H)-yl]phenyl}-3-piperidin-1-ylbenzamide] | 10
Cc1ccc(NC(=O)c2ccnc(N3CCCC3)c2)cc1-n1ccc2ccc(OCCN3CCCC3)cc2c1=O [Example 5, N-{4-Methyl-3-[1-oxo-7-(2-pyrrolidin-1-ylethoxy)isoquinolin-2(1H)-yl]phenyl}-2-pyrrolidin-1-ylisonicotinamide] | 2
Cc1ccc(NC(=O)c2ccnc(-c3cccs3)c2)cc1-n1ccc2ccc(OCCN(C)C)cc2c1=O [Example 9, N-{3-[7-[2-(dimethylamino)ethoxy]-1-oxoisoquinolin-2(1H)-yl]-4-methylphenyl}-2-(2-thienyl)isonicotinamide] | 0.2
Cc1ccc(NC(=O)c2cccc(-c3cnco3)c2)cc1-n1ccc2ccc(OCCCN3CCCC3)cc2c1=O [Example 11, N-{4-Methyl-3-[1-oxo-7-(3-pyrrolidin-1-ylpropoxy)isoquinolin-2(1H)-yl]phenyl}-3-(1,3-oxazol-5-yl)benzamide] | 0.794
